Data reported in publication PMC11110727, “Exploiting thiol-functionalized benzosiloxaboroles for achieving diverse substitution patterns – synthesis, characterization and biological evaluation of promising antibacterial agents” (RSC Medicinal Chemistry, 2024).
Converted amounts (≈) assume the structure as drawn. Like-named read-outs stand apart in the source and are kept apart here.

Columns and labels:
[1] = tested on: S. aureus ATCC 6538P; experiment: Antibacterial activity: MIC/MBC determination and disc-diffusion; assay type: cell-based, Staphylococcus aureus; conditions: S. aureus ATCC 6538P; for diameter of inhibition zone: disc-diffusion, — = zone not observed; for MIC / MBC: Staphylococcus aureus, ATCC6538P; for MIC: read-out: MIC
Procedure, shortened: (§1)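 Strains were subcultured twice for 24–48 h at 30 °C, on TSA for bacteria and Sabouraud dextrose agar for yeasts. Disc-diffusion and MIC followed EUCAST/CLSI recommendations, and MBC/MFC followed CLSI. Compounds were dissolved in DMSO, with fluconazole or linezolid as references.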

[2] = tested on: E. cloacae DSM 6234; experiment: Antibacterial activity: MIC/MBC, MIC with PAβN, disc-diffusion; assay type: cell-based, Enterobacter cloacae; conditions: E. cloacae DSM 6234; for MIC: Enterobacter cloacae, DSM6234, read-out: MIC
Procedure, shortened: (§2)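 Strains were subcultured twice on TSA at 30 °C. They were then tested by disc diffusion (EUCAST/CLSI), by CLSI broth-microdilution MIC in Mueller–Hinton II broth and by CLSI MBC, with compounds in DMSO.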

[3] = tested on: P. aeruginosa ATCC 27853; experiment: as above; assay type: cell-based; conditions: Pseudomonas aeruginosa, ATCC27853; P. aeruginosa ATCC 27853; read-out: MIC
Procedure, shortened: as §2

[4] = tested on: B. cepacia ATCC 25416; experiment: Antibacterial activity: MIC/MBC, disc-diffusion; assay type: cell-based, Burkholderia cepacia; conditions: Burkholderia cepacia, ATCC25416; B. cepacia ATCC 25416; read-out: MIC
Procedure, shortened: as §2

[5] = tested on: B. bronchiseptica ATCC 4617; experiment: Antibacterial activity: MIC/MBC, disc-diffusion; assay type: cell-based, Bordetella bronchiseptica; conditions: B. bronchiseptica ATCC 4617; for MIC: Bordetella bronchiseptica, ATCC4617, read-out: MIC
Procedure, shortened: as §2

[6] = tested on: C. albicans ATCC 90028; experiment: Antifungal activity: MIC/MFC, disc-diffusion; assay type: cell-based, Candida albicans; conditions: for diameter of inhibition zone: C. albicans ATCC 90028, (-) = zone not observed, paper discs 9 mm; for MIC: Candida albicans, ATCC90028, read-out: MIC
Procedure, shortened: as §1

[7] = tested on: C. guilliermondii IBA 155; experiment: Antifungal activity: MIC/MFC, disc-diffusion; assay type: cell-based; conditions: for diameter of inhibition zone / MFC: C. guilliermondii IBA 155; for diameter of inhibition zone: (-) = zone not observed, paper discs 9 mm; for MIC / MFC: Meyerozyma guilliermondii, IBA155; for MIC: read-out: MIC
Procedure, shortened: as §1

[8] = tested on: C. parapsilosis ATCC 22019; experiment: Antifungal activity: MIC/MFC, disc-diffusion; assay type: cell-based; conditions: for diameter of inhibition zone: C. parapsilosis ATCC 22019, (-) = zone not observed, paper discs 9 mm; for MIC: Lodderomyces parapsilosis, ATCC22019, read-out: MIC
Procedure, shortened: as §1

[9] = tested on: C. tropicalis ATCC 750; experiment: Antifungal activity: MIC/MFC, disc-diffusion; assay type: cell-based; conditions: for diameter of inhibition zone: C. tropicalis ATCC 750, (-) = zone not observed, paper discs 9 mm; for MIC: Candida tropicalis, ATCC750, read-out: MIC
Procedure, shortened: as §1

[10] = tested on: C. tropicalis IBA 171; experiment: Antifungal activity: MIC/MFC, disc-diffusion; assay type: cell-based; conditions: for diameter of inhibition zone: C. tropicalis IBA 171, (-) = zone not observed, paper discs 9 mm; for MIC: Candida tropicalis, IBA171, read-out: MIC
Procedure, shortened: as §1

[11] = tested on: S. cerevisiae ATCC 9763; experiment: Antifungal activity: MIC/MFC, disc-diffusion; assay type: cell-based, Saccharomyces cerevisiae; conditions: for diameter of inhibition zone / MFC: S. cerevisiae ATCC 9763; for diameter of inhibition zone: (-) = zone not observed, paper discs 9 mm; for MIC / MFC: Saccharomyces cerevisiae, ATCC9763; for MIC: read-out: MIC
Procedure, shortened: as §1

[12] = read-out: MBC (first MBC where Eagle effect)
[13] = value after the slash, read-out: second MBC (Eagle effect)

| SMILES | diameter of inhibition zone [1] | MIC [1] | MIC [2] | MIC [3] | MIC [4] | MIC [5] | diameter of inhibition zone [6] | MIC [6] | diameter of inhibition zone [7] | MIC [7] | diameter of inhibition zone [8] | MIC [8] | diameter of inhibition zone [9] | MIC [9] | diameter of inhibition zone [10] | MIC [10] | diameter of inhibition zone [11] | MIC [11] | MBC [1, 12] | MFC [11] | also measured |
| --- | --- | --- | --- | --- | --- | --- | --- | --- | --- | --- | --- | --- | --- | --- | --- | --- | --- | --- | --- | --- | --- |
| C[Si]1(C)OB(O)c2cc(F)c(SC3CC(=O)N(c4ccc(F)cc4)C3=O)c(F)c21 (centres unmarked) [Compound 14, 3-((5,7-Difluoro-3-hydroxy-1,1-dimethyl-1,3-dihydrobenzo[c][1,2,5]oxasilaborol-6-yl)thio)-1-(4-fluorophenyl)pyrrolidine-2,5-dione] | 22 mm | 50 µg/mL (≈ 114 µM) | > 200 µg/mL | > 200 µg/mL | > 200 µg/mL | 200 µg/mL (≈ 457 µM) | 21 mm | 200 µg/mL (≈ 457 µM) | 31 mm | 100 µg/mL (≈ 229 µM) | 27 mm | 100 µg/mL (≈ 229 µM) | 20 mm | 200 µg/mL (≈ 457 µM) | 19 mm | 200 µg/mL (≈ 457 µM) | 30 mm | 50 µg/mL (≈ 114 µM) |  |  | diameter of inhibition zone ([5]; (-) = zone not observed, paper discs 9 mm): 11 mm |
| C[Si]1(C)OB(O)c2ccc(SC3CC(=O)N(c4ccc(F)cc4)C3=O)c(F)c21 (centres unmarked) [Compound 15, 3-((7-Fluoro-3-hydroxy-1,1-dimethyl-1,3-dihydrobenzo[c][1,2,5]oxasilaborol-6-yl)thio)-1-(4-fluorophenyl)pyrrolidine-2,5-dione] | 23 mm | 25 µg/mL (≈ 59.6 µM) | > 200 µg/mL | > 200 µg/mL | > 200 µg/mL | > 200 µg/mL | 19 mm | 200 µg/mL (≈ 477 µM) | 28 mm | 200 µg/mL (≈ 477 µM) | 23 mm | 200 µg/mL (≈ 477 µM) | 14 mm | > 200 µg/mL | 15 mm | > 200 µg/mL | 26 mm | 200 µg/mL (≈ 477 µM) |  |  |  |
| C[Si]1(C)OB(O)c2cc(F)c(SC3CC(=O)N(c4ccc(Br)c(C(F)(F)F)c4)C3=O)c(F)c21 (centres unmarked) [Compound 16, 1-(4-Bromo-3-(trifluoromethyl)phenyl)-3-((5,7-difluoro-3-hydroxy-1,1-dimethyl-1,3-dihydrobenzo[c][1,2,5]oxasilaborol-6-yl)thio)pyrrolidine-2,5-dione] | 20 mm | 50 µg/mL (≈ 88.3 µM) | > 200 µg/mL | > 200 µg/mL | > 200 µg/mL | 200 µg/mL (≈ 353 µM) | 25 mm | 50 µg/mL (≈ 88.3 µM) | 30 mm | 12.5 µg/mL (≈ 22.1 µM) | 24 mm | 50 µg/mL (≈ 88.3 µM) | 19 mm | 50 µg/mL (≈ 88.3 µM) | 19 mm | 50 µg/mL (≈ 88.3 µM) | 35 mm | 6.25 µg/mL (≈ 11 µM) | 100 µg/mL (≈ 177 µM) | 50 µg/mL (≈ 88.3 µM) | MFC [7]: 50 µg/mL (≈ 88.3 µM) |
| C[Si]1(C)OB(O)c2ccc(SC3CC(=O)N(c4ccc(Br)c(C(F)(F)F)c4)C3=O)c(F)c21 (centres unmarked) [Compound 17, 1-(4-Bromo-3-(trifluoromethyl)phenyl)-3-((7-fluoro-3-hydroxy-1,1-dimethyl-1,3-dihydrobenzo[c][1,2,5]oxasilaborol-6-yl)thio)pyrrolidine-2,5-dione] | 19 mm | 25 µg/mL (≈ 45.6 µM) | > 200 µg/mL | > 200 µg/mL | > 200 µg/mL | 200 µg/mL (≈ 365 µM) | 20 mm | 100 µg/mL (≈ 182 µM) | 27 mm | 50 µg/mL (≈ 91.2 µM) | 22 mm | 50 µg/mL (≈ 91.2 µM) | 14 mm | 100 µg/mL (≈ 182 µM) | 16 mm | 200 µg/mL (≈ 365 µM) | 33 mm | 6.25 µg/mL (≈ 11.4 µM) | 100 µg/mL (≈ 182 µM) | 100 µg/mL (≈ 182 µM) | MFC [7]: 200 µg/mL (≈ 365 µM) |
| C[Si]1(C)OB(O)c2cc(F)c(SCCC(=O)OCCCCCC[n+]3ccccc3)c(F)c21 [Compound 18, 1-(6-((3-((5,7-difluoro-3-hydroxy-1,1-dimethyl-1,3-dihydrobenzo[c][1,2,5]oxasilaborol-6-yl)thio)propanoyl)oxy)hexyl)pyridin-1-ium trifluoromethanesulfonate] | 19 mm | 25 µg/mL | > 400 µg/mL | > 400 µg/mL | > 400 µg/mL | > 400 µg/mL |  | > 400 µg/mL |  | > 400 µg/mL | 14 mm | 400 µg/mL |  | 400 µg/mL |  | 400 µg/mL |  | > 400 µg/mL | 100 µg/mL |  |  |
| C[Si]1(C)OB(O)c2ccc(SCCC(=O)OCCCCCC[n+]3ccccc3)c(F)c21 [Compound 19, 1-(6-((3-((7-Fluoro-3-hydroxy-1,1-dimethyl-1,3-dihydrobenzo[c][1,2,5]oxasilaborol-6-yl)thio)propanoyl)oxy)hexyl)pyridin-1-ium trifluoromethanesulfonate] | 20 mm | 25 µg/mL | > 400 µg/mL | > 400 µg/mL | > 400 µg/mL | > 400 µg/mL |  | > 400 µg/mL |  | > 400 µg/mL | 16 mm | 400 µg/mL | 15 mm | 400 µg/mL | 16 mm | 400 µg/mL |  | > 400 µg/mL | 100 µg/mL |  |  |
| C[Si]1(C)OB(O)c2cc(F)c(SCCS(=O)(=O)c3ccccc3)c(F)c21 [Compound 20, 5,7-Difluoro-1,1-dimethyl-6-((2-(phenylsulfonyl)ethyl)thio)benzo[c][1,2,5]oxasilaborol-3(1H)-ol] | 30 mm | 3.12 µg/mL (≈ 7.53 µM) | > 400 µg/mL | > 400 µg/mL | > 400 µg/mL | > 400 µg/mL |  | > 400 µg/mL |  | > 400 µg/mL |  | > 400 µg/mL |  | > 400 µg/mL |  | > 400 µg/mL | 16 mm | 400 µg/mL (≈ 965 µM) | 12.5 µg/mL (≈ 30.2 µM) |  | MBC [1, 13]: 200 µg/mL (≈ 483 µM); -fold reduction of MIC in the presence of PAβN ([2]; PAβN 20 μg mL^−1, MHB + 1 mM MgSO4): 4 -fold |
| C[Si]1(C)OB(O)c2ccc(SCCS(=O)(=O)c3ccccc3)c(F)c21 [Compound 21, 7-Fluoro-1,1-dimethyl-6-((2-(phenylsulfonyl)ethyl)thio)benzo[c][1,2,5]oxasilaborol-3(1H)-ol] | 26 mm | 12.5 µg/mL (≈ 31.5 µM) | > 400 µg/mL | > 400 µg/mL | > 400 µg/mL | > 400 µg/mL |  | 400 µg/mL (≈ 1010 µM) |  | > 400 µg/mL |  | 400 µg/mL (≈ 1010 µM) |  | > 400 µg/mL |  | 400 µg/mL (≈ 1010 µM) | 30 mm | 6.25 µg/mL (≈ 15.8 µM) | 200 µg/mL (≈ 505 µM) | 100 µg/mL (≈ 252 µM) |  |
| CC(=O)CSc1ccc2c(c1F)[Si](C)(C)OB2O [Compound 22, 1-((7-Fluoro-3-hydroxy-1,1-dimethyl-1,3-dihydrobenzo[c][1,2,5]oxasilaborol-6-yl)thio)propan-2-one] | 25 mm | 1.56 µg/mL (≈ 5.49 µM) | > 400 µg/mL | > 400 µg/mL | > 400 µg/mL | > 400 µg/mL |  | > 400 µg/mL |  | > 400 µg/mL |  | > 400 µg/mL |  | > 400 µg/mL |  | > 400 µg/mL | 17 mm | 400 µg/mL (≈ 1410 µM) | 200 µg/mL (≈ 704 µM) |  |  |
| C[Si]1(C)OB(O)c2ccc(SCC(=O)c3ccccc3)c(F)c21 [Compound 23, 2-((7-Fluoro-3-hydroxy-1,1-dimethyl-1,3-dihydrobenzo[c][1,2,5]oxasilaborol-6-yl)thio)-1-phenylethan-1-one] | 31 mm | 1.56 µg/mL (≈ 4.51 µM) | > 400 µg/mL | > 400 µg/mL | > 400 µg/mL | > 400 µg/mL |  | > 400 µg/mL |  | > 400 µg/mL |  | 400 µg/mL (≈ 1160 µM) |  | 400 µg/mL (≈ 1160 µM) |  | 400 µg/mL (≈ 1160 µM) | 24 mm | 25 µg/mL (≈ 72.2 µM) | 3.12 µg/mL (≈ 9.01 µM) | 200 µg/mL (≈ 578 µM) | MBC [1, 13]: 200 µg/mL (≈ 578 µM) |
